Columns and labels:
Caco-2 cells [1] = test: Absorption across Caco-2 monolayer in transwell chambers; assay type: in vitro ADME, human; details: 800 ng apical
Experimental: (§1) FIG. 5: C12-Asn-GABA crosses the epithelial barrier without modifying epithelial cells physiology. Caco-2 cells were cultivated into transwell chambers. After treatment with C12-Asn-GABA (800 ng) at the apical side, C12-Asn-GABA was quantified inside the cells and both the apical and basolateral compartments by LC-MS/MS (A); data are represented as mean±SEM, n=3 experiments of 3 wells per condition. Extracted ion chromatogram at the exact mass of GABA (104.0702 m/z) with a mass accuracy of 5 ppm of the GABA commercial standard (GABA (Std.) and apical and basolateral compartments after loading or not Caco-2 cells with 800 ng of GABA at the apical site (B); representation of one well, n=3 experiments of 3 wells per condition. Paracellular permeability assessed by the passage of FITC-dextran loaded at the apical side (C) and CXCL8 secretion assessed by ELISA (D) were monitored after treatment of Caco-2 cells at the apical side with C12-Asn-GABA (10 μM); data are represented as mean±SEM, n=3 experiments of 3 wells per condition. […]
Caco-2 cells were grown in Glutamax DMEM (Gibco, Invitrogen life technologies, Paisley, UK) supplemented with 10% heat-inactivated fetal bovine serum (FBS) (Gibco, Invitrogen life technologies, Paisley, UK), 1% nonessential amino acids and 1% antibiotics (100 U/ml penicillin and […] streptomycin (Gibco, Invitrogen life technologies, Grand Island, N.Y., USA) at 37° C. in a 5% C02 water-saturated atmosphere. Cells were seeded on Transwell inserts (Costar, Sigma-Aldrich, Saint-Quentin Fallavier, France) and absorption studies of C12-Asn-GABA and GABA were performed 16 days later. These compounds were quantified by LC-MS/MS in both apical and basolateral chambers as well as in cells. The effect of C12-Asn-GABA (1-100 μM) on paracellular permeability was also measured by mucosal-to-serosal flux of 4 kDa Fluorescein Isothiocyanate (FITC)-labelled dextran as previously described^31. […]
The initial barrier for any drug absorption is the intestinal epithelial cell wall. […] The transport of GABA alone across the cell monolayer was also assessed. […]

[2] = system: mouse dorsal root ganglia (DRG) neurons; test: Calcium mobilization in primary DRG sensory neurons, basal (unstimulated); assay type: cell-based; details: 10 μM
Experimental: Male C57B16 mice (6-8 weeks) were used to produce primary cultures of dorsal root ganglia (DRG) sensory neurons for calcium flux experiments, and to perform studies of colorectal distention and intestinal isotonic contraction. All procedures were approved by Institutional Animal Care Committees (CEEA 122).
To determine whether C12-Asn-GABA or C12-Asn-BABA is capable of signaling to sensory nerves, calcium mobilization studies were performed on primary cultures of mouse dorsal root ganglia (DRG) neurons. […] The same experiments were thereafter performed in neurons activated by either an agonist of the receptor calcium channel TRPV1 (capsaicin) or by a mix of agonists (histamine, serotonin and bradykinin) for G protein coupled receptors (GPCR) implicated in visceral hypersensitivity. Exposure of neurons to either capsaicin (125 nM) or the mix of GPCR agonists (histamine, bradykinin, serotonin, 10 μM each) induced an increase in calcium flux as shown by the higher % of responding neurons and amplitude of the response (ΔF/F) compared to the vehicle (FIG. 4A, 4B). […] To investigate whether the inhibitory effect of C12-Asn-GABA was associated to the GABA residue, neurons were treated with saclofen (10, 50, and 100 μM), a competitive antagonist of the GABAB receptor. […]

Caco-2 cells [3] = test: Paracellular permeability, 4 kDa FITC-dextran flux across Caco-2 monolayer; assay type: cell-based, human; details: 10 μM apical, 24 h
Experimental: as §1
To assess the effect of C12-Asn-GABA on paracellular permeability, transport of dextran 4 kDa FITC across a Caco-2 cell monolayer was investigated. […] In parallel, the release of CXCL8 from Caco-2 cells into the medium, of both apical and basolateral sides of the transwell, was assessed by ELISA. […]

CCCCCCCCCCCC(=O)NC(CC(N)=O)C(=O)NCCCC(=O)O (stereo not shown) [C12-Asn-GABA, C11 C(O)-Asn-gamma-aminobutyric acid]
fraction of apically added compound found in the basolateral chamber (Caco-2 cells [1]; 24 h, LC-MS/MS): approximately 50% | level in epithelial cells (Caco-2 cells [1]; 24 h of incubation): low levels | calcium mobilization under basal (unstimulated) conditions [2]: does not induce calcium mobilization | percentage of 4 kDa FITC traversing the cell monolayers (paracellular permeability) (Caco-2 cells [3]): not modified

Reference: patent publication US11912645B2, “Lipopeptide compounds for the treatment of pain disorders” (INSERM (Institut National de la Santé et de la Recherche …, priority 2017, dated 2024)
